Experimental data from PubChem BioAssay (NCI).
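Interpolation was linear, between the two tested concentrations surrounding the appropriate level; five concentrations were tested over 48 hours in 96-well plates. TGI denotes the concentration required for complete inhibition of growth.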

Tests used:
Test in all cases: inhibition of tumour cell growth, NCI panel, 48 h
[1] = system: A498 renal
[2] = system: A549 NSCLC
[3] = system: ACHN renal
[4] = system: BT-549 breast
[5] = system: CAKI-1 renal
[6] = system: CCRF-CEM leukemia
[7] = system: COLO 205 colon
[8] = system: DU-145 prostate
[9] = system: EKVX NSCLC
[10] = system: HCC-2998 colon
[11] = system: HCT-116 colon
[12] = system: HCT-15 colon
[13] = system: HOP-62 NSCLC
[14] = system: HOP-92 NSCLC
[15] = system: HS 578T breast
[16] = system: IGROV1 ovarian
[17] = system: KM12 colon
[18] = system: LOX IMVI melanoma
[19] = system: M14 melanoma
[20] = system: MALME-3M melanoma
[21] = system: MCF7 breast
[22] = system: MDA-MB-231 breast
[23] = system: MDA-MB-435
[24] = system: MDA-N
[25] = system: MOLT-4 leukemia
[26] = system: NCI-H226 lung
[27] = system: NCI-H23 lung
[28] = system: NCI/ADR-RES ovarian
[29] = system: OVCAR-3 ovarian
[30] = system: OVCAR-4 ovarian
[31] = system: OVCAR-5 ovarian
[32] = system: OVCAR-8 ovarian
[33] = system: PC-3 prostate
[34] = system: RPMI-8226 leukemia
[35] = system: RXF 393 renal
[36] = system: SF-268 CNS
[37] = system: SF-295 CNS
[38] = system: SF-539 CNS
[39] = system: SK-MEL-2 melanoma
[40] = system: SK-MEL-28 melanoma
[41] = system: SK-MEL-5 melanoma
[42] = system: SK-OV-3 ovarian
[43] = system: SN12C renal
[44] = system: SNB-19 CNS
[45] = system: SW-620 colon
[46] = system: T-47D breast
[47] = system: TK-10 renal
[48] = system: U251 CNS
[49] = system: UACC-257 melanoma
[50] = system: UACC-62 melanoma
[51] = system: UO-31 renal
[52] = system: 786-0 renal
[53] = system: NCI-H460 lung
[54] = system: NCI-H522 lung

Cc1cn(C2CC(O)C(Cn3nncc3Cn3ncc(=O)[nH]c3=O)O2)c(=O)[nH]c1=O (configuration not stated)
TGI [1]: > 100 µM | TGI [2]: > 100 µM | TGI [3]: > 100 µM | TGI [4]: > 100 µM | TGI [5]: > 100 µM | TGI [6]: > 100 µM | TGI [7]: > 100 µM | TGI [8]: > 100 µM | TGI [9]: > 100 µM | TGI [10]: > 100 µM | TGI [11]: > 100 µM | TGI [12]: > 100 µM | TGI [13]: > 100 µM | TGI [14]: > 100 µM | TGI [15]: > 100 µM | TGI [16]: > 100 µM | TGI [17]: > 100 µM | TGI [18]: > 100 µM | TGI [19]: > 100 µM | TGI [20]: > 100 µM | TGI [21]: > 100 µM | TGI [22]: > 100 µM | TGI [23]: > 100 µM | TGI [24]: > 100 µM | TGI [25]: > 100 µM | TGI [26]: > 100 µM | TGI [27]: > 100 µM | TGI [28]: > 100 µM | TGI [29]: > 100 µM | TGI [30]: > 100 µM | TGI [31]: > 100 µM | TGI [32]: > 100 µM | TGI [33]: > 100 µM | TGI [34]: > 100 µM | TGI [35]: > 100 µM | TGI [36]: > 100 µM | TGI [37]: > 100 µM | TGI [38]: > 100 µM | TGI [39]: > 100 µM | TGI [40]: > 100 µM | TGI [41]: > 100 µM | TGI [42]: > 100 µM | TGI [43]: > 100 µM | TGI [44]: > 100 µM | TGI [45]: > 100 µM | TGI [46]: > 100 µM | TGI [47]: > 100 µM | TGI [48]: > 100 µM | TGI [49]: > 100 µM | TGI [50]: > 100 µM | TGI [51]: > 100 µM

C=C(CCC=C(C)C)C1CC=C(C)CC1 (configuration not stated)
TGI [52]: 35.7 µM | TGI [1]: > 100 µM | TGI [2]: 39 µM | TGI [3]: 33.4 µM | TGI [4]: > 100 µM | TGI [5]: 42.2 µM | TGI [7]: 71.5 µM | TGI [8]: 71.1 µM | TGI [9]: 92.7 µM | TGI [11]: 57.9 µM | TGI [12]: 39.6 µM | TGI [13]: 37.4 µM | TGI [15]: 59 µM | TGI [16]: 28.4 µM | TGI [17]: 52.6 µM | TGI [18]: 21.9 µM | TGI [19]: > 100 µM | TGI [20]: > 100 µM | TGI [21]: 42.2 µM | TGI [22]: 97.6 µM | TGI [23]: 35.7 µM | TGI [24]: 37.9 µM | TGI [26]: > 100 µM | TGI [27]: 34.9 µM | TGI [53]: 40.1 µM | TGI [54]: 32.3 µM | TGI [28]: > 100 µM | TGI [29]: 81.2 µM | TGI [31]: > 100 µM | TGI [32]: > 100 µM | TGI [35]: 31.6 µM | TGI [36]: > 100 µM | TGI [37]: 45 µM | TGI [38]: 68.2 µM | TGI [39]: 37.5 µM | TGI [41]: 31 µM | TGI [42]: > 100 µM | TGI [43]: 41.3 µM | TGI [44]: > 100 µM | TGI [45]: 53.6 µM | TGI [46]: > 100 µM | TGI [47]: > 100 µM | TGI [48]: 34.8 µM | TGI [49]: > 100 µM | TGI [50]: > 100 µM | TGI [51]: 30.6 µM
